US6440935B1, “Inhibition of eucaryotic pathogens and neoplasms and stimulation of fibroblasts and lymphocytes with lytic peptides” (priority 1987, dated 2002)
Where “and” joins values, the source holds several entries; their conditions need not be identical. Identical values can stand only once. Like-named read-outs stand apart in the source and are kept apart here. Residues, ends and D or L forms follow the SMILES beside them.

Columns and labels:
[1] = test system: T. cruzi intracellular amastigotes in Vero cells; test: In vitro effect on T. cruzi intracellular amastigotes in Vero cells; assay type: cell-based, Trypanosoma cruzi; settings: one hour period, relative to no peptide
Description: Vero cells at 10^5 cells/ml in MEM-FBS were mixed with Trypanosoma Cruzi in the trypomastigote stage at 10^5 cells/ml in the same medium at a 1:1 ratio of Vero cells to trypomastigotes. The mixture of Vero cells and trypomastigotes was cultured at 37° C. in a 5% CO2 atmosphere in microscope slide chambers. At 24 hours, cecropin SB-37 was added to the chambers, except for a set of controls, at a final concentration of 100 μM. […]

[2] = EL-4 cell viability by trypan blue exclusion; assay type: cell-based; settings: one hour, 95% at 0 μM
Description: (§1) EL-4 lymphoma cells were suspended in RPMI 1640 at 5,000,000/ml with 500,000 cells per well. Various concentrations of cecropin SB-37 and Shiva 1 were added and the wells incubated at 37° C. in a 5% CO2 atmosphere for one hour. Viability was determined by microscopic observation for trypan blue exclusion.

[3] = EL-4 cytotoxicity by chromium release; assay type: cell-based; settings: for cytotoxicity at 100 µM: read-out: Percent Cytotoxicity
Description: (§2) The EL-4 cells were then incubated for 30 minutes in the presence of various peptides at different concentrations. Cytotoxicity was taken as a percentage of chromium released (measured in the culture supernatant) relative to the chromium released by EL-4 cells lysed by detergent.
(§3) Similar chromium release data were obtained using the same procedure with a 100 μM concentration of peptide, but with EL-4 cell concentrations of 2×10^6, 10^6, and 5×10^5 cells in 0.5 ml medium.
(§4) The chromium release data was also obtained by using the supernatant from unlabeled EL-4 cells cultured for 30 minutes in the presence of 100 μM peptide as medium for […] EL-4 cultured as described above. The percent cytotoxicity calculated as described above was 20.16 for cecropin SB-37, 19.73 for *cecropin SB-37, 41.96 for Shiva 1, and 106.67 for melittin.

EL-4 cells = test: EL-4 cytotoxicity by chromium release; assay type: cell-based; settings: 30 minutes, 10^6 EL-4 cells
Description: as §2, §3, §4

[4] = Viability by trypan blue exclusion, SP2 cells; assay type: cell-based, mouse; settings: 100 μM
Description: as §1
(§5) The procedure of Example 5 was repeated with 50 and 200 μM cecropin SB-37 using SP2 mouse lymphoma cells, KG-1 human leukemia cells, Daudi human Burkitt's lymphoma cells, non-adherent normal human lymphocytes and adherent 3T3 […] fibroblasts. Viability was determined by microscopic observation for trypan blue exclusion.
(§6) This procedure was repeated with 100 μM cecropin SB-37 using non-adherent normal human lymphocytes, Daudi human Burkitt's lymphoma cells, KG-1 human leukemia cells, U937 human monocytic leukemia cells, and SP2 murine myeloma cells, and determining viability by the trypan blue exclusion method at 15, 30 and 60 minutes following addition of the peptide.

SP2 mouse lymphoma cells = test: Viability by trypan blue exclusion, SP2 cells; assay type: cell-based
Description: as §1, §5, §6

[5] = Viability by trypan blue exclusion, KG-1 cells; assay type: cell-based, human; settings: 100 μM
Description: as §1, §5, §6

[6] = test system: KG-1 human leukemia cells; test: Viability by trypan blue exclusion, KG-1 cells; assay type: cell-based
Description: as §1, §5, §6

[7] = Viability by trypan blue exclusion, normal lymphocytes; assay type: cell-based, human; settings: 100 μM
Description: as §1, §5, §6

[8] = test system: non-adherent normal human lymphocytes; test: as above; assay type: cell-based
Description: as §1, §5, §6

[9] = test system: adherent 3T3 human fibroblasts; test: Viability by trypan blue exclusion, 3T3 fibroblasts; assay type: cell-based
[10] = In vivo screening on mice; design: species or system BALB/C mice; settings: for WBC Count: 110 mg/kg per day i.m. for 6 days, Mouse 1, 2, 3
Description: Nine BALB/C mice, 4 to 5 weeks of age, maintained on commercial rodent ration fed ad libidum and in general good health were each inoculated with 1.76 mg/day of cecropin SB-37 in PBS intramuscularly for 4 consecutive days. No other change was made in diet or conditions. […] At the end of the fourth day, three were sacrificed and examined. After 30 days, three were given an additional 1.76 mg of cecropin SB-37 each.
The remaining mice were all sacrificed 7 days after the last inoculation.
Following the above procedure, three BALB/C mice were given 110 mg/kg of body weight per day of cecropin SB-37 injected intramuscularly in balanced salt solution for 6 days. Ten days after the last inoculation, the mice were again injected intramuscularly with 110 mg/kg of body weight with cecropin SB-37. […] All three mice were sacrificed 7 days after the final inoculation and tissues were examined.

[11] = test system: Pseudomonas syringae pv. tabaci; test: Plant pathogen LD50 in cecropin SB-37/lysozyme; assay type: cell-based; settings: incubation at 30° C.
[12] = test system: Erwinia caratovora subsp. carotova; test: Plant pathogen LD50 in cecropin SB-37/lysozyme; assay type: cell-based; settings: incubation at 30° C.
[13] = test system: Plasmodium falciparum in human red blood cells; settings: 24-hour period, relative to untreated infected red blood cells
[14] = S. intermedius 19930 viability in lytic peptide/lysozyme; settings: Viability (%), lysozyme at ten times

With `CC[C@H](C)[C@H](NC(=O)CNC(=O)[C@H](CC(N)=O)NC(=O)[C@H](CCCNC(=N)N)NC(=O)[C@@H](NC(=O)[C@H](CC(N)=O)NC(=O)[C@H](CCCNC(=N)N)NC(=O)CNC(=O)[C@H](CCSC)NC(=O)[C@H](CCCCN)NC(=O)[C@H](CCC(=O)O)NC(=O)[C@@H](NC(=O)[C@H](CCCCN)NC(=O)[C@H](CCCCN)NC(=O)[C@H](Cc1ccccc1)NC(=O)[C@@H](NC(=O)[C@H](CCCCN)NC(=O)[C@H](Cc1c[nH]c2ccccc12)NC(=O)[C@H](CCCCN)NC(=O)[C@@H]1CCCN1C(=O)[C@@H](N)CCSC)C(C)C)[C@@H](C)CC)[C@@H](C)CC)C(=O)N[C@H](C(=O)N[C@@H](CCCCN)C(=O)N[C@@H](C)C(=O)NCC(=O)N1CCC[C@H]1C(=O)N[C@@H](C)C(=O)N[C@H](C(=O)N[C@@H](C)C(=O)N[C@H](C(=O)N[C@@H](CC(C)C)C(=O)NCC(=O)N[C@@H](CCC(=O)O)C(=O)N[C@@H](C)C(=O)N[C@@H](CCCCN)C(=O)N[C@@H](C)C(=O)N[C@@H](CC(C)C)C(=O)NCC(N)=O)C(C)C)[C@@H](C)CC)C(C)C` [Cecropin SB-37] (H-MPKWKVFKKIEKMGRNIRNGIVKAGPAIAVLGEAKALG-NH2) the “LD50 (concentration for 50% reduction in number of infected Vero cells)” value [1] was “about 90 μM”, the viability ([2]; 10 μM) was 90% and the viability ([2]; 25 μM) was 90%. For the same molecule, the viability ([2]; 50 μM) was 75%, the viability ([2]; 100 μM) was 20% and the cytotoxicity at 100 µM ([3]; 2 × 10^6 cells per 0.5 ml) was 93.8%. For the same molecule, the cytotoxicity at 100 µM ([3]; 5 × 10^5 cells per 0.5 ml) was 99.6%, the cytotoxicity at 100 µM ([3]; 10^6 cells per 0.5 ml) was 89.2% and the cytotoxicity ([3]; supernatant from unlabeled EL-4 cells cultured 30 minutes with 100 μM peptide used as medium for labeled EL-4, read-out: percent cytotoxicity) was 20.2%. For the same molecule, the “Percent Cytotoxicity (chromium release vs detergent-lysed cells)” value (from here on “Percent Cytotoxicity”) (EL-4 cells; 10 μM) was 0.0%, the “Percent Cytotoxicity” value (EL-4 cells; 25 μM) was 4.49% and the “Percent Cytotoxicity” value (EL-4 cells; 50 μM) was 6.63%. The “Percent Cytotoxicity” value (EL-4 cells; 100 μM) was 36.42%, the viability at 100 µM ([4]; 15 min.) was 100% and the viability at 100 µM ([4]; 30 min.) was 40%. The viability at 100 µM ([4]; 60 min.) was 10%, the “Survival (percent)” value (SP2 mouse lymphoma cells; 50 μM) was 20% and the “Survival (percent)” value (SP2 mouse lymphoma cells; 100 μM) was 5%. The viability at 100 µM ([5]; 15 min.) was 50%, the viability at 100 µM ([5]; 30 min.) was 75% and the viability at 100 µM ([5]; 60 min.) was 50%. The “Survival (percent)” value ([6]; 50 μM) was 95%, the “Survival (percent)” value ([6]; 100 μM) was 0% and the viability at 100 µM ([7]; 15 min.) was 75%. For the same molecule, the viability at 100 µM ([7]; 30 min.) was 80%, the viability at 100 µM ([7]; 60 min.) was 85% and the “Survival (percent)” value ([8]; 50 μM) was 100%. The “Survival (percent)” value ([8]; 100 μM) was 30%, the “Survival (percent)” value ([9]; 50 μM) was 80% and the “Survival (percent)” value ([9]; 100 μM) was 80%. The adverse reactions ([10]; 1.76 mg/day intramuscularly, 4 consecutive days, observed twice daily) was “no adverse reactions were noted”, the “antibody to cecropin SB-37” value ([10]; 1.76 mg/day regimen) was “None of these mice produced detectable levels of antibody” and the “examination of organs and tissues” value ([10]; 1.76 mg/day regimen, sacrificed 7 days after the last inoculation) was “no gross pathological changes were present”. For the same molecule, the “WBC Count” value ([10]; Day 1) was 13 10^3/ml and 9 10^3/ml, the “WBC Count” value ([10]; Day 3) was 14 10^3/ml and 9 10^3/ml and 10 10^3/ml and the “WBC Count” value ([10]; Day 5) was 15 10^3/ml and 19 10^3/ml. For the same molecule, the “WBC Count” value ([10]; Day 8) was 21 10^3/ml, the “WBC Count” value ([10]; Day 11) was 23 10^3/ml and 20 10^3/ml and the adverse effects ([10]; 110 mg/kg per day intramuscularly for 6 days, again ten days later) was “no adverse effects”. For the same molecule, the “cecropin SB-37 antibodies” value ([10]; 110 mg/kg regimen) was “No cecropin SB-37 antibodies were detected”, the examination of tissues ([10]; 110 mg/kg regimen, sacrificed 7 days after the final inoculation) was “enlarged spleens but were otherwise unremarkable” and the adverse reactions ([10]; additional 1.76 mg after 30 days) was “No adverse reactions were noted”. It also gave an LD50 [11] of 5.20 µM, an LD50 [12] of 1.48 µM and a viability of 0%. It also gave a viability at 0.01 µM of 100%, a viability at 0.1 µM of 79.4% and a viability at 1 µM of 48.8%. The viability at 5 µM was 38.5%, the viability at 7.5 µM was 0.7% and the “LD50 (concentration for 50% reduction in 3H-hypoxanthine uptake)” value [13] was “about 22.5 μM”. The LD50 (Pseudomonas solanacearum) was 64.0 µM, the viability at 0.01 µM ([14]; peptide concentration 0.01 μM) was 100% and the viability at 0.1 µM ([14]; peptide concentration 0.1 μM) was 94.7%. It also gave a viability at 0.5 µM ([14]; peptide concentration 0.5 μM) of 69.4%, a viability at 1 µM ([14]; peptide concentration 1.0 μM) of 42.5% and a viability at 5 µM ([14]; peptide concentration 5.0 μM) of 36.1%. It also gave a viability ([14]; peptide concentration 10. μM) of 5.6% and a viability ([14]; peptide concentration 50. μM) of 0%.
